Assay results taken from ChEMBL document CHEMBL4190229, “Growth Inhibition of Colon Cancer and Melanoma Cells by Versiol Derivatives from a Paraconiothyrium Species” (J Nat Prod, 2017).

How the values were obtained:
COLO 205 = assay: Antiproliferative activity against human COLO205 cells after 48 hrs by XTT assay; conditions: COLO 205, 48 h
KM12 = assay: Antiproliferative activity against human KM12 cells after 48 hrs by XTT assay; conditions: KM12, 48 h
[1] = test system: Panel NCI-60 (60 carcinoma cell lines); assay: Antiproliferative activity against human NCI60 cells at 10 uM after 48 hrs by sulforhodamine B assay relative to control; format: functional
[2] = test system: Panel NCI-60 (60 carcinoma cell lines); assay: Antiproliferative activity against human NCI60 cells after 48 hrs by sulforhodamine B assay; format: functional, cell-based

IC50 (COLO 205) [µM] | Structure (SMILES) | IC50 (KM12) [µM] | Activity [1] [%] | Activity [2]
< 1.25 | CC(=O)CC/C=C(\C)[C@H](O)[C@H](C)C(=O)O[C@H]1C[C@H](C)C=C2C=C[C@@]3(C)O[C@@H](O)CC(=O)[C@]3(C)[C@H]21 | < 1.25 | -34 | Dose-dependent effect
12.5 | C/C(=C\C=C\[C@H](C)CC(=O)O)[C@H](O)[C@H](C)C(=O)O[C@H]1C[C@@H](C)[C@@H](O)c2ccc(C)c(C)c21 | 6.5 | 89 | –
< 1.25 | CC(/C=C/C=C(\C)[C@H](O)[C@H](C)C(=O)O[C@H]1C[C@H](C)C=C2C=C[C@@]3(C)O[C@@H](O)CC(=O)[C@]3(C)[C@H]21)=C\C=C\C(=O)O | < 1.25 | -3 | –
